From ChEMBL document CHEMBL1201862, “PubChem BioAssay data set” (2004)
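Values below derive from 48-hour exposures of cells grown in 96-well plates, with endpoints linearly interpolated between the two concentrations bracketing the appropriate inhibition level. At the GI50, growth is halved.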 Calls of active or inactive are those of the source. No stated cut-off is given here; in the data, active = GI50 up to about 1.1 µM and inactive = higher.

Key:
Assay in all cases: NCI tumour cell line growth inhibition, 48 h
[1] = tested on: HL-60
[2] = tested on: EKVX
[3] = tested on: OVCAR-4
[4] = tested on: Malme-3M
[5] = tested on: MDA-MB-435
[6] = tested on: UACC-257
[7] = tested on: SN12C
[8] = tested on: A498
[9] = tested on: SNB-19
[10] = tested on: UO-31
[11] = tested on: RXF 393
[12] = tested on: HT-29
[13] = tested on: HOP-92
[14] = tested on: SW-620
[15] = tested on: CAKI-1
[16] = tested on: Hs-578T
[17] = tested on: COLO 205
[18] = tested on: OVCAR-5

Measured: GI50

COc1cc2c3c(cc(Cl)nc3c1OC)C(O)(CC(C)=O)C(=O)N2 (stereo not drawn)
inactive: [1] 6.79 µM | [2] 16.2 µM | [3] 17.8 µM | [4] 15.9 µM | [5] 16.4 µM | [6] 8 µM | [7] 21.7 µM | [8] 18.3 µM | [9] > 40.3 µM | [10] 23.2 µM | [11] 16.3 µM | [12] > 45.7 µM | [13] 19.1 µM | [14] 27.4 µM | [15] 22.1 µM | [16] 40.3 µM | [17] 38.1 µM | [18] > 42.4 µM

C[N+](C)(C)CC(=O)N/N=C\c1c(O)ccc2ccccc12
inactive: [1] 14.2 µM | [2] 35.7 µM | [3] 32.2 µM | [4] 11.9 µM | [5] 39.3 µM | [6] 18.7 µM | [7] 32.2 µM | [8] 29.5 µM | [9] 63.4 µM | [10] 33.3 µM | [11] 20.9 µM | [12] > 100 µM | [13] 13.2 µM | [14] 63.5 µM | [15] 40.9 µM | [16] 14.4 µM | [17] > 100 µM | [18] 57.1 µM

Cc1cc2c(cc1-c1cc3c(cc1C)C(C(C)C)=C(O)C(=O)/C3=C\Nc1c3ccccc3nc3ccccc13)/C(=C/Nc1c3ccccc3nc3ccccc13)C(=O)C(O)=C2C(C)C
inactive: [1] 2.78 µM | [2] 1.75 µM | [3] 3.15 µM | [4] 2.2 µM | [5] 4.6 µM | [6] 4.34 µM | [7] 4.47 µM | [8] 7.03 µM | [9] 3.82 µM | [10] 3.03 µM | [11] 5.24 µM | [12] 1.54 µM | [13] 5.73 µM | [14] 2.9 µM | [15] 3.03 µM | [16] 3.77 µM | [17] 1.99 µM | [18] 4.4 µM

COc1ccc(C2=C3SC=c4ccccc4=C3ON=C2c2ccccc2)cc1
inactive: [1] > 100 µM | [2] > 100 µM | [3] > 100 µM | [4] > 100 µM | [5] > 100 µM | [6] > 100 µM | [7] > 100 µM | [8] > 100 µM | [9] > 100 µM | [10] > 100 µM | [11] > 100 µM | [12] > 100 µM | [13] 68.1 µM | [14] > 100 µM | [15] > 100 µM | [16] > 100 µM | [17] > 100 µM | [18] > 100 µM

CC1(C)OC2C(O)C(CO)OC2(C(F)F)O1 (stereo not drawn)
inactive: [1] > 100 µM | [2] > 100 µM | [3] > 100 µM | [4] > 100 µM | [5] > 63.5 µM | [6] > 100 µM | [7] > 100 µM | [8] > 100 µM | [9] > 47.1 µM | [10] > 31.3 µM | [11] > 100 µM | [12] > 100 µM | [13] > 100 µM | [14] > 100 µM | [15] > 100 µM | [16] > 100 µM | [17] > 100 µM | [18] > 100 µM

O=C(c1ccccc1)c1ccc2[nH]c(-c3c(Cl)c(Cl)c(Cl)c(Cl)c3-c3nnc(-c4ccccc4)o3)nc2c1
inactive: [1] 11.5 µM | [2] 54.1 µM | [3] 20.7 µM | [4] 17.9 µM | [5] 3.51 µM | [6] 80.2 µM | [7] 22.4 µM | [8] 12.1 µM | [9] 56.9 µM | [10] 49.3 µM | [11] 5.47 µM | [12] 31.3 µM | [13] 35.7 µM | [14] 29.7 µM | [15] 40.4 µM | [16] 27.4 µM | [17] 18.3 µM | [18] 67.5 µM

CSc1nc(-c2ccccc2)nc(C(C#N)C#N)n1
inactive: [1] > 100 µM | [2] > 100 µM | [3] > 100 µM | [4] > 100 µM | [5] > 100 µM | [6] > 100 µM | [7] > 100 µM | [8] > 100 µM | [9] > 100 µM | [10] 61.2 µM | [11] > 100 µM | [12] > 100 µM | [13] > 100 µM | [14] > 100 µM | [15] > 100 µM | [16] > 100 µM | [17] > 100 µM | [18] > 100 µM

O=C(Nc1sccc1S(=O)(=O)c1ccc(Cl)cc1)c1ccc(Cl)cc1
inactive: [1] > 100 µM | [2] 31 µM | [3] 25.6 µM | [4] 50.6 µM | [5] > 100 µM | [6] > 100 µM | [7] > 100 µM | [8] > 100 µM | [9] 44.2 µM | [10] 86.3 µM | [11] 65.6 µM | [12] > 100 µM | [13] 73.1 µM | [14] > 100 µM | [15] 80.4 µM | [16] 51.3 µM | [17] > 100 µM | [18] > 100 µM

N#Cc1ccnc(C(=O)N2CCCC2C(=O)O)c1 (stereo not drawn)
inactive: [1] > 100 µM | [2] > 100 µM | [3] > 100 µM | [4] > 100 µM | [5] > 100 µM | [6] > 100 µM | [7] > 100 µM | [8] > 100 µM | [9] > 100 µM | [10] > 100 µM | [11] > 100 µM | [12] > 100 µM | [13] > 100 µM | [14] > 100 µM | [15] > 100 µM | [16] > 100 µM | [17] > 100 µM | [18] > 100 µM

CC1=C2O[C@]3(O)C=C2C(=C(O)C1=O)[C@@H]1O[C@H](CC[C@H](C)/C=C(\C)C[C@@H](C)C[C@@H]3C)[C@H](C)[C@H](O)[C@H]1C [KENDOMYCIN]
inactive: [8] 1.58 µM | [18] 1.31 µM
active: [1] 0.145 µM | [2] 0.356 µM | [3] 0.194 µM | [4] 0.194 µM | [5] 0.145 µM | [6] 0.239 µM | [7] 0.811 µM | [9] 0.977 µM | [10] 0.193 µM | [11] 0.161 µM | [12] 0.181 µM | [13] 0.13 µM | [14] 0.582 µM | [15] 0.541 µM | [16] 0.289 µM | [17] 0.125 µM

CCCCCC/C=C\CCCCCCCCCC1=CC(=O)C=C(OC)C1=O [IRISQUINONE A]
inactive: [1] 1.88 µM | [2] 3.57 µM | [3] 2.05 µM | [4] 12.3 µM | [5] 3.81 µM | [6] 3.28 µM | [7] 3.03 µM | [8] 5.82 µM | [9] 2.89 µM | [10] 4.57 µM | [11] 3.01 µM | [12] 3.19 µM | [13] 2.52 µM | [14] 4.6 µM | [15] 3.48 µM | [16] 7.36 µM | [17] 1.63 µM | [18] 5.6 µM
